Source: patent US7829524B2, “Antimicrobial peptides” (Novozymes Adenium Biotech A/S, priority 2003, dated 2010)
Where no end group is shown, it is not given here.

How the values were obtained:
Assay type in all cases: cell-based
[1] = tested on: Micrococcus luteus (ATCC9341); settings: susceptible strain, NCCLS guidelines
Method: (§1) According to the NCCLS guidelines for susceptibility test of novel antimicrobial compounds, we found a broad spectrum of activity of Cat1 (Methods for Dilution Antimicrobial Susceptibility Tests for Bacteria That Grow Aerobically; Approved Standard-Fifth Edition. NCCLS document M7-A5 (ISBN1-56238-394-9)).
(§2) In another campaign, the specific MICs of Cat1 were determined against a variety of microbial strains relevant for wound infections. As recommended in the above-mentioned NCCLS protocol, the strains were grown in cationic adjusted Muller-Hinton Broth. The highest concentration tested was 32 μg/ml.
The antimicrobial activity of the polypeptides of the invention was analyzed using the Microdilution Broth Assay (see Example 1) with Mueller Hinton Broth (MHB) media. Four different bacterial strains were tested in this setup; Micrococcus luteus (ATCC 9341), Pseudomonas aeruginosa (ATCC 27853), Escherichia coli (ATCC 10536) and Klebsiella pneumoniae (DSM681). The amino acid sequence of the polypeptides and the Minimal Inhibitory concentrations (MIC, microgram/ml) obtained is presented in Table 7 below.

[2] = tested on: Salmonella choleraesuis (DSM9220)
From the text: as §1

[3] = tested on: Acinetobacter baumanii ATCC 49137
Method: as §1, §2

[4] = tested on: Aerococcus viridans ATCC 700406
Method: as §1, §2

[5] = tested on: Bordetella bronchiseptica ATCC 14064
Method: as §1, §2

[6] = tested on: Citrobacter freundii ATCC 11811
Method: as §1, §2

[7] = tested on: Escherichia coli ATCC 25922
Method: as §1, §2

[8] = tested on: Klebsiella pneumoniae ATCC 29995
Method: as §1, §2

[9] = tested on: Morganella morganii ATCC 21116
Method: as §1, §2

[10] = tested on: Staphylococcus aureus (MSSA) ATCC 25923
Method: as §1, §2

[11] = tested on: Staphylococcus epidermidis ATCC 12228
Method: as §1, §2

[12] = tested on: Staphyloloccus aureus GISA ATCC 700699
Method: as §1, §2

[13] = tested on: Stenotrophomonas maltophilia ATCC 12714
Method: as §1, §2

[14] = tested on: Streptococcus agalactiae ATCC 624
Method: as §1, §2

[15] = tested on: Streptococcus pneumoniae ATCC 10015
Method: as §1, §2

[16] = tested on: Streptotoccus pyogenes ATCC 4543
Method: as §1, §2

[17] = tested on: Clostridium difficile ATCC 43594; experiment: NCCLS microdilution broth assay (MIC), wound infection strains; settings: Table 1; cationic adjusted Muller-Hinton Broth; highest concentration tested 32 μg/ml
Method: as §1, §2

[18] = tested on: Bacillus subtilis (ATCC6633); experiment: Radial diffusion assay (MEC); settings: susceptible species
Method: (§3) A modified version of a previously published protocol has been applied in the detection of antimicrobial activity (Lehrer et al., (1991) Ultra sensitive assays for endogenous antimicrobial polypeptides J Immunol Methods 137: 167-173). Target bacteria (10^6 colony forming units (CFU)) were added to 10 ml of underlay agarose (1% low electro-endosmosis agarose, 0.03% Trypticase soy broth, 10 mM sodium phosphate, pH 7.4, 37 degrees Celsius). Suspension was solidified on an INTEGRID Petri Dish (Becton Dickinson Labware). A 3 mm Gel Puncher was used to make holes in the underlay agarose (Amersham Pharmacia Biotech, Sweden). Samples were added to the holes and incubated at 37 degrees Celsius, 3 hours. An overlay was poured on top and the plate was incubated overnight (LB media, 7.5% Agar). Antimicrobial activity was seen as bacterial clearing zones around the wells. Living cells was counterstained by adding 10 ml, 0.2 mM MTT (3-(4,5-Dimethylthiazol-2-yl)-2,5-diphenyltetrazolium bromide Thiazolyl blue).

[19] = tested on: Bortadella bronchiseptica (ATCC4617); experiment: Radial diffusion assay (MEC); settings: susceptible species
Method: as §3

[20] = tested on: Enterococcus faecalis (DSM2570); experiment: Radial diffusion assay (MEC); settings: susceptible species
Method: as §3

[21] = tested on: Enterococcus hirae (ATCC10541); experiment: Radial diffusion assay (MEC); settings: susceptible species
Method: as §3

[22] = tested on: Eschericia coli (ATCC10536); experiment: Radial diffusion assay (MEC); settings: susceptible species
Method: as §3

[23] = tested on: Klepsiella pneumoniae (ATCC10031); experiment: Radial diffusion assay (MEC); settings: susceptible species
Method: as §3

[24] = tested on: Micrococcus luteus (ATCC9341); experiment: Radial diffusion assay (MEC); settings: susceptible species
Method: as §3

[25] = tested on: Proteus mirabilis (ATCC7002); experiment: Radial diffusion assay (MEC); settings: susceptible species
Method: as §3

[26] = tested on: Pseudomonas aeroginosa (ATCC27853); experiment: Radial diffusion assay (MEC); settings: susceptible species
Method: as §3

[27] = tested on: Salmonella choleraesuis (DSM9220); experiment: Radial diffusion assay (MEC); settings: susceptible species
Method: as §3

[28] = tested on: Staphylococcus aureus (ATCC29737); experiment: Radial diffusion assay (MEC); settings: susceptible species
Method: as §3

[29] = tested on: Staphylococcus epidermidis (DSM1798); experiment: Radial diffusion assay (MEC); settings: susceptible species
Method: as §3

Escherichia coli Top10 = experiment: Radial Diffusion Assay using minimal conditions (MEC); settings: Table 8
Method: as §3
(§4) The antimicrobial activity of the polypeptides of the invention was also analyzed in a Radial Diffusion Assay (see Example 1) using minimal conditions. Two bacterial strains were tested in this setup; Staphylococcus camosus and Escherichia coli Top10. The amino acid sequence of the polypeptides and the Minimal Effective Concentration (MEC, microgram/ml) obtained is presented in table 8 below.

Staphylococcus camosus = experiment: as above; settings: Table 8
Method: as §3, §4

## GLLRRLRKKIGKKLKKIGQKIKPIRILVP [SEQ ID NO: 3]
[1]
  MIC: < 64 µg/mL
[2]
  MIC: < 64 µg/mL
[3]
  MIC: 8 µg/mL
[4]
  MIC: 0.5 µg/mL
[5]
  MIC: 0.5 µg/mL
[6]
  MIC: 1.5 µg/mL
[7]
  MIC: 1.5 µg/mL
[8]
  MIC: 8 µg/mL
[9]
  MIC: 1.5 µg/mL
[10]
  MIC: 32 µg/mL
[11]
  MIC: 4 µg/mL
[12]
  MIC: 32 µg/mL
[13]
  MIC: 1 µg/mL
[14]
  MIC: 16 µg/mL
[15]
  MIC: 8 µg/mL
[16]
  MIC: 1.5 µg/mL
[17]
  MIC: 32 µg/mL
[18]
  Minimal Effective Concentration (MEC): < 64 µg/mL
[19]
  Minimal Effective Concentration (MEC): < 64 µg/mL
[20]
  Minimal Effective Concentration (MEC): < 64 µg/mL
[21]
  Minimal Effective Concentration (MEC): < 64 µg/mL
[22]
  Minimal Effective Concentration (MEC): < 64 µg/mL
[23]
  Minimal Effective Concentration (MEC): < 64 µg/mL
[24]
  Minimal Effective Concentration (MEC): < 64 µg/mL
[25]
  Minimal Effective Concentration (MEC): < 64 µg/mL
[26]
  Minimal Effective Concentration (MEC): < 64 µg/mL
[27]
  Minimal Effective Concentration (MEC): < 64 µg/mL
[28]
  Minimal Effective Concentration (MEC): < 64 µg/mL
[29]
  Minimal Effective Concentration (MEC): < 64 µg/mL
Escherichia coli Top10
  MEC: 8.5 µg/mL
Staphylococcus camosus
  MEC: 2.5 µg/mL
